The values below come from patent publication US10047107B2, “Small molecule analogs of E4orf1” (BOARD OF SUPERVISORS OF LOUISIANA STATE UNIVERSITY AND …, priority 2014, dated 2018).

For one assay, the system named is 3T3-L1 pre-adipocytes. The assay is described as follows: Glucose uptake (2-deoxy glucose uptake) by 3T3-L1 pre-adipocytes. The format is cell-based. Particulars: 5 μM compound, 24 hours exposure, 3T3-L1 pre-adipocytes, basal conditions, without serum starvation, 2-DG uptake. How it is done: Glucose uptake by 3T3-L1 cells exposed to compounds 1-11 was determined at 5 μM concentration. Cells were exposed to compounds 1-11 for 24 hours and exposure to DMSO was used as the control group. 2-Deoxy glucose (2-DG) uptake was determined using the analog compounds without serum starving the cells prior to determining glucose uptake. Glucose uptake in 3T3-L1 pre-adipocytes was determined by exposing cells to compounds 1-11 for 24 hours without serum starvation. P values presented in the Table indicate statistical significance (p<0.05).
As for `COc1cc(C(C#N)Nc2ccc([B-](F)(F)F)cc2)cc(OC)c1OC.[K+]` (centres unmarked) [Example 8, Potassium (4-((cyano(3,4,5-trimethoxyphenyl)methyl)amino)phenyl) trifluoroborate], the “Percent increase in glucose uptake in comparison to DMSO treated Control” value is 43%.
On the same count and under the same terms, the entry for `N#CC(Nc1ccc([B-](F)(F)F)cc1)c1ccc(O)cc1.[K+]` (centres unmarked) [Example 2, Potassium (4-((cyano(4-hydroxyphenyl)methyl)amino)phenyl)trifluoroborate] is “No increase”; for `N#CC(Nc1ccc([B-](F)(F)F)cc1)c1ccc([B-](F)(F)F)cc1.[K+].[K+]` (centres unmarked) [Example 11] it is 53%.

Staying with this assay, now noted: Mus musculus, 3T3-L1, 24 h, read-out: Percent increase in glucose uptake in comparison to DMSO treated Control.
`N#CC(Nc1ccc(O)cc1)c1ccc([B-](F)(F)F)cc1` (centres unmarked) [Example 10, Potassium (4-(cyano((4-hydroxyphenyl)amino)methyl)phenyl)trifluoroborate]: the activation at 5 µM came to 31%.
On the same count and under the same terms, the figure for `N#CC(Nc1ccc([B-](F)(F)F)cc1)c1cccnc1` (centres unmarked) [Example 9, Potassium (4-((cyano(pyridin-3-yl)methyl)amino)phenyl)trifluoroborate] is 54%.

The same assay, now with this note: Mus musculus; 5 μM compound, 24 hours exposure, 3T3-L1 pre-adipocytes, basal conditions, without serum starvation, 2-DG uptake; read-out: Percent increase in glucose uptake in comparison to DMSO treated Control.
On to `CC1(C)OB(c2ccc(NC(C#N)c3ccc(B4OC(C)(C)C(C)(C)O4)cc3)cc2)OC1(C)C` (centres unmarked) [Example 6, 2-(4-(4,4,5,5-tetramethyl-1,3,2-dioxaborolan-2-yl)phenyl)-2-((4-(4,4,5,5-tetramethyl-1,3,2-dioxaborolan-2-yl)phenyl)amino)acetonitrile], for which the activation at 5 µM came to 17%.
Still for that read-out and setting: the figure for `CC1=C(C(C#N)Nc2ccc(B3OC(C)(C)C(C)(C)O3)cc2)C(C)(C)CCC1` (centres unmarked) [Example 4, 2-((4-(4,4,5,5-tetramethyl-1,3,2-dioxaborolan-2-yl)phenyl)amino)-2-(2,6,6-trimethylcyclohex-1-en-1-yl)acetonitrile] is 33%.
In the case of `COc1cc(C(C#N)Nc2ccc(B3OC(C)(C)C(C)(C)O3)cc2)cc(OC)c1OC` (centres unmarked) [Example 7, 2-((4-(4,4,5,5-tetramethyl-1,3,2-dioxaborolan-2-yl)phenyl)amino)-2-(3,4,5-trimethoxyphenyl)acetonitrile], the activation at 5 µM was determined as 41%.
Turning to `CC1(C)OB(c2ccc(NC(C#N)c3cccnc3)cc2)OC1(C)C` (centres unmarked) [Example 3, 2-(pyridin-3-yl)-2-((4-(4,4,5,5-tetramethyl-1,3,2-dioxaborolan-2-yl)phenyl)amino)acetonitrile], the activation at 5 µM stood at 9%.
In the case of `CC1(C)OB(c2ccc(C(C#N)Nc3ccc(O)cc3)cc2)OC1(C)C` (centres unmarked) [Example 5, 2-((4-hydroxyphenyl)amino)-2-(4-(4,4,5,5-tetramethyl-1,3,2-dioxaborolan-2-yl)phenyl)acetonitrile], the activation at 5 µM was 73%.
Take `CC1(C)OB(c2ccc(NC(C#N)c3ccc(O)cc3)cc2)OC1(C)C` (centres unmarked) [Example 1, 2-(4-hydroxyphenyl)-2-((4-(4,4,5,5-tetramethyl-1,3,2-dioxaborolan-2-yl)phenyl)amino)acetonitrile]: the activation at 5 µM is 24%.
